Experimental findings from PMC2685978, “Evaluation of Wuchereria bancrofti GST as a Vaccine Candidate for Lymphatic Filariasis” (PLoS Neglected Tropical Diseases, 2009) are described below.

The assay has as its target T1, rWbGST (Wuchereria bancrofti, UniProt Q86LL8).
T1 construct: about 28 kDa with tag
T1 sequence (Q86LL8 1-208): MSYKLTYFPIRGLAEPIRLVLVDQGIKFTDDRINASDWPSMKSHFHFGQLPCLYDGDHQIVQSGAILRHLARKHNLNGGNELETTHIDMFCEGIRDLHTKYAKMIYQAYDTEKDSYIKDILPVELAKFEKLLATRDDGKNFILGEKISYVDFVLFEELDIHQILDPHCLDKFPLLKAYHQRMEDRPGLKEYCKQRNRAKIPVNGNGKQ
The assay is described as follows: spectrophotometric conjugation assay at […] nm. The format is biochemical. The note with it: 1.0 mM CDNB, 1.0 mM GSH, 100 mM phosphate, pH 6.5; only specific activity printed.

For the compound `O=[N+]([O-])c1ccc(Cl)c([N+](=O)[O-])c1` [CDNB, 1-chloro-2,4-dinitrobenzene], the “spectrophotometric conjugation assay at 340 nm” value is “GST enzyme activity was determined using CDNB and GSH substrates”.
